Assay results from patent US20210059984A1, “METHOD AND COMPOSITION FOR REVERSING COGNITIVE IMPAIRMENTS AND LOSS USING SGLT2 INHIBITORS” (TAISHO PHARMACEUTICAL CO., LTD., priority 2019, published 2021).

Columns and labels:
SGLT2 = target: T1, SGLT2 (Homo sapiens, UniProt P31639); conditions: among the three FDA approved drugs; cited from earlier work
T1 sequence (P31639 1-672): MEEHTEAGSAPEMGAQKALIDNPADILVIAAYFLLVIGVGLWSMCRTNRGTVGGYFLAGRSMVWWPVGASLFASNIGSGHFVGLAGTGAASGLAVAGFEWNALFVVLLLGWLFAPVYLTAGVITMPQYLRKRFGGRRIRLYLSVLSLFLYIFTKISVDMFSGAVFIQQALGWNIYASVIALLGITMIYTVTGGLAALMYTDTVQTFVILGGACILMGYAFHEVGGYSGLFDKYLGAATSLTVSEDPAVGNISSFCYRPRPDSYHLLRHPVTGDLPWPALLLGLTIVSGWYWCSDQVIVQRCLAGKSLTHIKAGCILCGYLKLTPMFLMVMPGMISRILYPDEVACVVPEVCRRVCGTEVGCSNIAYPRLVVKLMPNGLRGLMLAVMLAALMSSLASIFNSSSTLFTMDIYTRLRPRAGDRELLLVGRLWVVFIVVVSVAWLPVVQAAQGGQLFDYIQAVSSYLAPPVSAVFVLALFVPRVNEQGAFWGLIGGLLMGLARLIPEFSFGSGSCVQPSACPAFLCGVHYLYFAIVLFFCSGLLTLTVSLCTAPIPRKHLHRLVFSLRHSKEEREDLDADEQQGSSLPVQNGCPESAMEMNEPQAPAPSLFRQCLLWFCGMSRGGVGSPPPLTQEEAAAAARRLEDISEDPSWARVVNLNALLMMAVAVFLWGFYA

diabetic patients = conditions: mean age 77 years, 12-month administration; cited from earlier work
diabetic mice = conditions: cited from earlier work
T2DN rats [1] = test: Plasma glucose and HbA1c levels in aged diabetic T2DN rats during drug treatment; format: in vivo, rat; conditions: 20 mg/kg/day via drinking water, from 14 months of age for 4 months, FIG. 3
Experimental: (§1) Unless otherwise indicated, all experiments using SGLT2 inhibitors were performed on 18-month old male Sprague Dawley (SD) and 14-month old […] rats, a genetic rat model of type II diabetes. Outbred SD rats purchased from Charles River were used as a nondiabetic control rat since identical genotypes are not necessary for this study. […] rats were prepared according to Diabetes, vol. 53, March 2004, pages 735-742. […] Treatment with an SGLT2 inhibitor began at 14-months of age and lasted for 4 months to determine whether control of hyperglycemia can slow the progression of cognitive dysfunction. Rats received either a vehicle or the SGLT2 inhibitor, luseogliflozin, at a dose of 20 mg/kg/day via drinking water. The SD rats were used as control. The levels of plasma glucose and HbA1c were measured by drawing a drop of blood from the tail vein during drug treatment and using traditional analytical methods to determine the concentration of plasma glucose and HbA1c.

[2] = system: middle cerebral artery of T2DN rats; test: Pressure-induced myogenic response of isolated middle cerebral artery; format: ex vivo, rat; conditions: aged T2DN rats, 20 mg/kg/day via drinking water for 4 months; FIG. 4
From the text: To measure the myogenic response of cerebral arteries, a section of the brain containing middle cerebral artery (MCA) was dissected and immediately placed in Tyrode's solution. A branch of the MCA was microdissected and cannulated with glass pipettes in a pressure myograph chamber filled with a physiologic salt solution (PSS). The vessels were equilibrated at a transmural pressure of 40 mmHg to develop spontaneous tone. After preconditioning, the inner diameter (ID) of MCA in response to intraluminal pressures ranging from 40 to 180 mmHg in steps of 20 mmHg was measured to access the myogenic response. Then, a passive pressure-diameter relationship was determined by replacing the bath solution with calcium-free PSS. The myogenic reactivity in response to an elevation in perfusion pressure was calculated by the formula: IDpressure/D40 mmHg×100(%). […] Next the effect of SGLT2 inhibitor was examined in the treatment of impaired myogenic response and autoregulation of cerebral blood flow was determined. […] The myogenic reactivity in response to an elevation in perfusion pressure was calculated by the formula: Dpressure/ID60 mmHg×100(%). […] After a 10-min equilibration period, baseline CBF was measured at 100 mmHg. […] CBF was measured at each step when the MAP reached a steady state. The infusion of phenylephrine was then stopped which allowed MAP to return to 100 mmHg, and CBF was re-recorded. […]

T2DN rats [3] = test: Autoregulation of cerebral blood flow (laser Doppler flowmetry); format: in vivo, rat; conditions: aged T2DN rats, 20 mg/kg/day via drinking water for 4 months; FIG. 5
Experimental: Measurements of arterial pressure and cortical blood flow (CBF) were performed by inserting cannulas in the femoral artery and vein for drug delivery and monitoring the mean arterial pressure (MAP). A closed cranial window was prepared on both sides of the brain by thinning the bone using a dental drill until the vessels on the surface of the brain could be visualized. Cortical blood flow (CBF) was measured using a laser Doppler flowmeter (LDF). Unless otherwise indicated, all experiments using SGLT2 inhibitors were performed on 18-month old male Sprague Dawley (SD) and 14-month old […] rats, a genetic rat model of type II diabetes. […] Next the effect of SGLT2 inhibitor was examined in the treatment of impaired myogenic response and autoregulation of cerebral blood flow was determined. […] The myogenic reactivity in response to an elevation in perfusion pressure was calculated by the formula: Dpressure/ID60 mmHg×100(%). […] After a 10-min equilibration period, baseline CBF was measured at 100 mmHg. […] CBF was measured at each step when the MAP reached a steady state. The infusion of phenylephrine was then stopped which allowed MAP to return to 100 mmHg, and CBF was re-recorded. […] Percentage change of CBF was calculated by the formula: [(CBFMAP-CBFbaseline)/CBFbaseline]×100(%).

T2DN rats [4] = test: Blood-brain barrier leakage by Evans blue dye; format: in vivo, rat; conditions: aged T2DN rats, long-term treatment, MAP 180 mmHg for 1 hour; FIG. 6
Experimental: Unless otherwise indicated, all experiments using SGLT2 inhibitors were performed on 18-month old male Sprague Dawley (SD) and 14-month old […] rats, a genetic rat model of type II diabetes. Outbred SD rats purchased from Charles River were used as a nondiabetic control rat since identical genotypes are not necessary for this study. […] rats were prepared according to Diabetes, vol. 53, March 2004, pages 735-742. […] Treatment with an SGLT2 inhibitor began at 14-months of age and lasted for 4 months to determine whether control of hyperglycemia can slow the progression of cognitive dysfunction. Rats received either a vehicle or the SGLT2 inhibitor, luseogliflozin, at a dose of 20 mg/kg/day via drinking water. The SD rats were used as control. To determine the impact of higher cerebral blood flow with extended middle cerebral artery diameters on the brain, the brains of SGLT2-treated and untreated rats were assessed for blood brain leakage (BBB). Evans blue (EB) dye was used to compare the degree of BBB leakage. EB was injected via the femoral vein, and MAP was maintained at 180 mmHg for 1 hour by adjusting the infusion rate of phenylephrine. […] The brain was then homogenized and BBB leakage was quantitated using a fluorescent microplate reader at excitation and emission wavelengths of 620 nm and 680 nm.

T2DN rats [5] = test: Functional hyperemia (neurovascular coupling) in response to whisker stimulation; format: in vivo, rat; conditions: old diabetic T2DN rats, whisker stimulation 10 Hz for 60 seconds; FIG. 7
Experimental: as §1, with “[…] In these studies, neurovascular coupling (NVC) responses were investigated prior to cerebral autoregulation study. […] Cortical blood flow (CBF) was measured using a laser Doppler flowmeter ([…] probe was placed above somatosensory cortex for the recording” for “The levels”, “LDF signal change (CBFchange). Percentage changes in CBF at various perfusion pressures vs. CBF at perfusion pressure of 100 mmHg” for “plasma glucose and HbA1c”, “determined in response” for “measured by drawing a drop of blood from the tail vein during drug treatment and using traditional analytical methods”, “whisker stimulation.” for “determine the concentration of plasma glucose and HbA1c.”

T2DN rats [6] = test: Eight-arm radial water maze test of spatial learning and memory; format: in vivo, rat; conditions: DM (T2DN) rats, tests 2, 24, 48 and 72 hours post training; FIG. 8
Experimental: Unless otherwise indicated, all experiments using SGLT2 inhibitors were performed on 18-month old male Sprague Dawley (SD) and 14-month old […] rats, a genetic rat model of type II diabetes. Outbred SD rats purchased from Charles River were used as a nondiabetic control rat since identical genotypes are not necessary for this study. […] rats were prepared according to Diabetes, vol. 53, March 2004, pages 735-742. […] Treatment with an SGLT2 inhibitor began at 14-months of age and lasted for 4 months to determine whether control of hyperglycemia can slow the progression of cognitive dysfunction. Rats received either a vehicle or the SGLT2 inhibitor, luseogliflozin, at a dose of 20 mg/kg/day via drinking water. The SD rats were used as control. […] The rats are trained to identify a platform marked with a visual cue in one of the 8 arms of the pool to escape. Four memory trials are performed at 2, 24, 48 and 72 hrs after the training, which consist of 4 consecutive swims. The time to reach the platform (latency), the number of errors, distance traveled and swim speed were recorded (Nat Protoc 1: 1671-1679, 2006). Control, DM and DM luseogliflozin treated rats were trained on the first day to recognize the platform located in one of the eight arms to escape, and repeated tests were performed 2, 24, 48, and 72 hours post training. The time taken by the rats to reach the platform was recorded. […]

Q: Which results are given for `Cc1ccc([C@@H]2O[C@H](CO)[C@@H](O)[C@H](O)[C@H]2O)cc1Cc1ccc(-c2ccc(F)cc2)s1` [canagliflozin]?
A: selectivity for SGLT2 compared to SGLT1 (SGLT2): least selective; cognitive functions (cognitive performance) (diabetic patients): no worsening of their cognitive functions

Q: With `OC[C@H]1O[C@@H](c2ccc(Cl)c(Cc3ccc(O[C@H]4CCOC4)cc3)c2)[C@H](O)[C@@H](O)[C@@H]1O` [empagliflozin] as the compound, how does the “selectivity for SGLT2 compared to SGLT1” value (SGLT2) read?
A: greatest selectivity

Q: What about the cognitive function (diabetic mice) of the same compound?
A: cognitive function improving effect

Q: What about the “cognitive functions (cognitive performance)” value (diabetic patients) of the same compound?
A: no worsening of their cognitive functions

Q: Which results are given for `CCOc1ccc(Cc2cc([C@@H]3S[C@H](CO)[C@@H](O)[C@H](O)[C@H]3O)c(OC)cc2C)cc1` [luseogliflozin]?
A: levels of HbA1c (T2DN rats [1]): reduced both the levels of plasma glucose and HbA1c to near normal; levels of plasma glucose (T2DN rats [1]): reduced both the levels of plasma glucose and HbA1c to near normal; diameters of middle cerebral artery upon exposure to higher perfusion pressures (myogenic response) [2]: completely reversed the increase in the diameters of middle cerebral artery; cerebral blood flow on elevation of MAP (autoregulation) (T2DN rats [3]): restored to normal levels; blood brain barrier damage (Evans blue leakage) (T2DN rats [4]): completely reversed the blood brain barrier damage; functional hyperemia in response to whisker stimulation (T2DN rats [5]): restored; escape time (time to reach the platform), cognitive performance (T2DN rats [6]): reduced escape time similar to normal rats
